Results reported in patent US5183818A, “Arylalkylether and arylalkylthioether inhibitors of lipoxygenase enzyme activity” (Abbott Laboratories, priority 1991, dated 1993).
pIC50: −log10 of the molar value.

Key:
[1] = target: T1, 5-Lipoxygenase from RBL-1 20,000 × g Supernatant (Rattus norvegicus, UniProt P12527); test: 5-lipoxygenase inhibition in 20,000 xg supernatant of homogenized RBL-1 cells (radiolabeled arachidonic acid); type: biochemical; conditions: in vitro, incubations in triplicate, read-out: IC50 × 10^6 Molar
T1 construct: 20,000 xg supernatant from 1.5 million homogenized RBL-1 cells; endogenous in cells; host or cells: RBL-1 cells, 20,000 xg supernatant of homogenate
T1 sequence (P12527 1-673): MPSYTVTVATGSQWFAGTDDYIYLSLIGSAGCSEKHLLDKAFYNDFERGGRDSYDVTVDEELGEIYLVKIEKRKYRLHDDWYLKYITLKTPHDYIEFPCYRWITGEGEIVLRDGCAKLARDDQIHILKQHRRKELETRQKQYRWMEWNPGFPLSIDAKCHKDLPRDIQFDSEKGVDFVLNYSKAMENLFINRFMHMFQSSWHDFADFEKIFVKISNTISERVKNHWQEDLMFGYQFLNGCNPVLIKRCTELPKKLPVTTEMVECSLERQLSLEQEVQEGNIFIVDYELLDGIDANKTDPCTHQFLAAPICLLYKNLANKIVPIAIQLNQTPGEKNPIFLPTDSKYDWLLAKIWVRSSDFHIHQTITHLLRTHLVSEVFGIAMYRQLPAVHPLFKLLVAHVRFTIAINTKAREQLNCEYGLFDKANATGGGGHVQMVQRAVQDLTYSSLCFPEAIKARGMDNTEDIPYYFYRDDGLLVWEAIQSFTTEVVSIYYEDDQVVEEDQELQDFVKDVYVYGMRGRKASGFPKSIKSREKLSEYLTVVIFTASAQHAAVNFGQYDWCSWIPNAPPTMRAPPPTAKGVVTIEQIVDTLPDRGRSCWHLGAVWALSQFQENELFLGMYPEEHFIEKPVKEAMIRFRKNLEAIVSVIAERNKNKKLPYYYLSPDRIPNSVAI
Experimental: Assays to determine 5-lipoxygenase inhibitory activity were performed in […] incubations containing the 20,000 xg supernatant from 1.5 million homogenized RBL-1 cells and various concentrations of the test compound. Reactions were initiated by addition of radiolabeled arachidonic acid and terminated by acidification and ether extraction. Reaction products were separated from nonconverted substrate by thin layer chromatography and measured by liquid scintillation spectroscopy. All incubations are performed in triplicate. Inhibition of 5-lipoxygenase activity was calculated as the ratio of the amount of product formed in the presence and absence of inhibitor. IC50 values (concentration of compound producing 50% enzyme inhibition) were calculated by linear regression analysis of percentage inhibition versus log inhibitor concentration plots. (Dyer, R. D.; Haviv, F.; Hanel, A. M.; Bornemier, D. A.; Carter, G. W. Fed. Proc., Fed. Am. Soc. Exp. Biol. 1984, 43, 1462A).

Leukotriene Biosynthesis = test: Inhibition of leukotriene biosynthesis in vivo, rat peritoneal anaphylaxis model; conditions: 200 μmol/kg oral (gavage) one hour prior to antigen challenge, peritoneal fluids 15 minutes after challenge
Experimental: Inhibition of the biosynthesis of leukotrienes in vivo after oral administration of compound was determined using a rat peritoneal anaphylaxis model in a similar manner as that described by Young and coworkers (Young, P. R.; Dyer, R. D.; Carter, G. W. Carter, G. W. Fed. Proc., Fed. Am. Soc. Exp. Biol. 1985, 44, 1185). In this model rats were injected intraperitoneally (ip) with rabbit antibody to bovine serum albumin (BSA) and three hours later injected ip with BSA to induce an antigen antibody response. Rats were sacrificed 15 minutes after this challenge and the peritoneal fluids were collected and analyzed for leukotriene levels. Test compounds were administered by gavage one hour prior to the antigen challenge. Percent inhibition values were determined by comparing the treatment group to the mean of the control group, and the results are presented in Table 2 for representative compounds of the present invention.

SMILES	pIC50 [1]	Percent Inhibition of Leukotrienes at 200 μmol/kg (Oral Dose) (Leukotriene Biosynthesis)
CC(CSCc1ccco1)N(O)C(N)=O (stereo not shown) [Example 1]	5.26	71%
CC(CSc1ccccn1)N(O)C(N)=O (stereo not shown) [Example 2, N-hydroxy-N-[2-(1-(2-pyridyl)thio)propyl] urea]	5.01	
CC(COCc1ccco1)N(O)C(N)=O (stereo not shown) [Example 3]	4.92	77%
Cc1ccc(C(C)OCCN(O)C(N)=O)o1 (stereo not shown) [Example 4, N-Hydroxy-N-[2-(1-[1-(5-methylfur-2-yl)]ethoxy)ethyl] urea]	5.20	
Cc1ccc(COCC(C)N(O)C(N)=O)o1 (stereo not shown) [Example 5]	5.34	
Cc1ccc(COCCN(O)C(N)=O)o1 [Example 6, N-Hydroxy-N-[2-(5-methylfur-2-ylmethoxy)ethyl] urea]	5.14	
Cc1ccc(C(C)OCC(C)N(O)C(N)=O)o1 (stereo not shown) [Example 7, N-Hydroxy-N-[2-(1-[1-(5-methylfur-2-yl)]ethoxy)propyl] urea]	5.18	
Cc1cc(COCC(C)N(O)C(N)=O)c(C)o1 (stereo not shown) [Example 8]	5.24	
Cc1cc(COCCN(O)C(N)=O)c(C)o1 [Example 9, N-Hydroxy-N-[2-(1-(2,5-dimethylfur-3yl)methoxy)ethyl] urea]	5.16	
Cc1occc1COCC(C)N(O)C(N)=O (stereo not shown) [Example 10]	5.22	75%
CC(COCc1ccoc1)N(O)C(N)=O (stereo not shown) [Example 11]	5.03	78%
CC(OCC(C)N(O)C(N)=O)c1ccco1 (stereo not shown) [Example 12, N-Hydroxy-N-[2-(1-[1-(fur-2-yl)ethoxy)]propyl] urea]	5.14	
Cc1ccc(COCC(C)N(O)C(N)=O)s1 (stereo not shown) [Example 13]	5.72	
Cc1ccc(COCCN(O)C(N)=O)s1 [Example 14, N-Hydroxy-N-[2-(1-(5-methylthien-2-yl)methoxy)ethyl] urea]	5.52	92%
CC(OCCN(O)C(N)=O)c1cc2ccccc2s1 (stereo not shown) [Example 15, N-Hydroxy-N-[2-(1-[1-(benzo[b]thien-2-yl)]ethoxy)ethyl) urea]	6.70	
NC(=O)N(O)CCOCc1cc2ccccc2s1 [Example 16, N-Hydroxy-N-[2-(1-(benzo[b]thien-2-yl)methoxy)ethyl] urea]	6.17	
CC(COCc1cc2ccccc2s1)N(O)C(N)=O (stereo not shown) [Example 17]	6.34	89%
CNC(=O)N(O)C(C)CSCc1ccc(CN(C)C)o1 (stereo not shown) [Example 18, N-Hydroxy-N-[2-(1-(5-N,N-dimethylaminomethyl)fur-2-ylmethylthio)-propyl]-N'-methyl urea]	4.56	
NC(=O)N(O)CCOCc1cccs1 [Example 19, N-Hydroxy-N-[2-(thien-2-ylmethoxy)ethyl] urea]	5.39	100%
CC(COCc1cccs1)N(O)C(N)=O (stereo not shown) [Example 20]	5.35	
CC(COCc1ccsc1)N(O)C(N)=O (stereo not shown) [Example 21]	5.08	
